Test results as given in patent US11471422B2, “Stealth, targeted nanoparticles (STN) for oral drug delivery” (priority 2014, dated 2022).
Like-named read-outs stand apart in the source and are kept apart here. Blank lines part the entries; values can stand above or below the compound they belong to.

What was measured:
Conditions in all cases: in vivo
[1] = Percentage bioavailability vs time profile of anticancer drug from coated STN (FIG. 5)
Source text: FIG. 5: Percentage Bioavailability vs time profile of anticancer drug (docetaxel) from coated STN indicating >90% release after 9 hr against conventional oral form with <10% bioavailability

[2] = Percentage cumulative bioavailability vs time profile of two antibiotics from coated STN (FIG. 4)
[3] = Percentage bioavailability vs time profile of Nutraceutical 1 from coated STN (FIG. 6)

bioavailability at 9 hr ([1]; oral, from coated STN, after 9 hr (printed as release)): > 90%
bioavailability ([1]; conventional oral form): < 10%
SMILES: CC(=O)O[C@@]12CO[C@@H]1C[C@H](O)[C@@]1(C)C(=O)[C@H](O)C3=C(C)[C@@H](OC(=O)[C@H](O)[C@@H](NC(=O)OC(C)(C)C)c4ccccc4)C[C@@](O)([C@@H](OC(=O)c4ccccc4)[C@H]21)C3(C)C [docetaxel]

SMILES: CC1(C)[C@H](C(=O)O)N2C(=O)C[C@H]2S1(=O)=O [sulbactam]
bioavailability at 7 hr ([2]; from coated STN, STN oral delivery, at 7 hr, read-out: Percentage cumulative bioavailability): > 100%

bioavailability at 6 hrs ([3]; oral, from coated STN, at 6 hrs): > 80%
bioavailability ([3]; conventional formulations): < 15%
SMILES: COC1=C(OC)C(=O)C(C/C=C(\C)CC/C=C(\C)CC/C=C(\C)CC/C=C(\C)CC/C=C(\C)CC/C=C(\C)CC/C=C(\C)CC/C=C(\C)CC/C=C(\C)CCC=C(C)C)=C(C)C1=O [Coenzyme Q 10]

bioavailability at 7 hr ([2]; po): > 100%
SMILES: CO/N=C(\C(=O)N[C@@H]1C(=O)N2C(C(=O)O)=C(CSc3nc(=O)c(=O)[nH]n3C)CS[C@H]12)c1csc(N)n1 [ceftriaxone]
